Experimental data reported in article PMC7911516, “Investigation of the Factors Responsible for the Poor Oral Bioavailability of Acacetin in Rats: Physicochemical and Biopharmaceutical Aspects” (Pharmaceutics, 2021).
≈ marks a conversion by molar mass, not a printed value. Where two headings read alike, the source gives them in different places.

Experiments:
[1] = test system: rat CYP3A; experiment: Disappearance in RLM with CYP isoform-selective inhibitor KCZ; assay type: in vitro ADME; conditions: acacetin 20 μM, 10-μM KCZ, NADPH, 5 min
Procedure: (§1) To investigate hepatic phase I enzymes- and UGT-dependent metabolism of acacetin, the disappearance rate of acacetin at concentrations of 1–200 µM in RLM was measured in the presence of both NADPH and UDPGA. The substrate (acacetin) concentration ((S); µM) versus the initial metabolic rate (V; nmol/min/mg protein) profiles were interpreted based on Michaelis–Menten kinetics, and relevant parameters were estimated via nonlinear regression analysis (GraphPad Prism ver. 5.01; GraphPad Software, San Diego, CA, USA) using the following Michaelis–Menten equation: V = Vmax× [S]/Km× [S] where Km and Vmax are the Michaelis–Menten constant and maximal metabolic rate, respectively. The unbound intrinsic metabolic clearance (CLint) was calculated as Vmax/(Km × fuMIC). Furthermore, the disappearance of acacetin (20 μM) in the absence or presence of specific CYP isoform-selective inhibitors in RLM was determined to study the hepatic CYP-mediated metabolism of acacetin. Microsomal incubation mixtures (total volume of 200 μL) were prepared as follows: RLM (0.5 mg/mL microsomal protein), 1 mM NADPH, 10 mM MgCl2, 50 mM potassium phosphate buffer, acacetin, with or without CYP isoform-selective inhibitors (10 μM NF for rat CYP1A, 10-μM SPZ for rat CYP2C, 10-μM QND for rat CYP2D, and 10-μM KCZ for rat CYP3A). […]

[2] = Maximum absorbable dose (MAD) estimation; parameters: species or system rat; conditions: oral dose 100 mg/kg, from measured SIF solubility
Source text: The PAMPA permeability values of acacetin seem to lie approximately in the middle of those of verapamil and ranitidine. […]. Rats have been recognized as a good animal model for predicting the GI absorption of drugs, particularly via passive diffusion, in humans. As a GI absorption prediction model, the maximum absorbable dose (MAD) can estimate a theoretical dose of a drug that can be absorbed across rat intestine, using solubility, intestinal volume, residence time, and intestinal permeability. […] Thus, the SIF solubility of acacetin measured in the present study could not represent an actual solubility of acacetin when it is dispersed in the dosing vehicle and subsequently administered into the GI fluids, which could result in the under-estimation of MAD. Alternatively, an in silico estimate of acacetin solubility in water can be used for the calculation of MAD.

[3] = Blood-to-plasma concentration ratio; assay type: in vitro ADME; conditions: Sprague-Dawley, rat, 37 °C, read-out: RB (blood-to-plasma concentration ratio)
Procedure: (§2) The fractions of unbound acacetin in plasma (fuP), microsomes (fuMIC), SGF (fuSGF), and SIF(fuSIF) were measured using a rapid equilibrium dialysis device (Thermo Fisher Scientific, Inc., Waltham, MA, USA) as previously described with slight modifications. Briefly, 0.2 mL of the matrix spiked with acacetin (10 μM) was placed into the “sample” chamber, and 0.4 mL of PBS was placed into the adjacent “buffer” chamber. The fractions of unbound acacetin were calculated as the concentration ratio between the two chambers. The blood-to-plasma concentration ratio (RB) of acacetin was determined as described previously. Briefly, 1-mL blood spiked with acacetin (1 μM) was incubated at 37 °C for 30 min. The blood sample was centrifuged at 2000× g for 5 min to prepare the plasma sample. The concentrations of acacetin in the aforementioned plasma and buffer samples were measured using the LC-MS/MS method.

[4] = Michaelis–Menten metabolic kinetics in RLM with NADPH and UDPGA; assay type: in vitro ADME, rat; conditions: NADPH and UDPGA/alamethicin
Procedure: To investigate hepatic phase I enzymes- and UGT-dependent metabolism of acacetin, the disappearance rate of acacetin at concentrations of 1–200 µM in RLM was measured in the presence of both NADPH and UDPGA. The substrate (acacetin) concentration ((S); µM) versus the initial metabolic rate (V; nmol/min/mg protein) profiles were interpreted based on Michaelis–Menten kinetics, and relevant parameters were estimated via nonlinear regression analysis (GraphPad Prism ver. 5.01; GraphPad Software, San Diego, CA, USA) using the following Michaelis–Menten equation: V = Vmax× [S]/Km× [S] where Km and Vmax are the Michaelis–Menten constant and maximal metabolic rate, respectively. The unbound intrinsic metabolic clearance (CLint) was calculated as Vmax/(Km × fuMIC). Furthermore, the disappearance of acacetin (20 μM) in the absence or presence of specific CYP isoform-selective inhibitors in RLM was determined to study the hepatic CYP-mediated metabolism of acacetin. Microsomal incubation mixtures (total volume of 200 μL) were prepared as follows: RLM (0.5 mg/mL microsomal protein), 1 mM NADPH, 10 mM MgCl2, 50 mM potassium phosphate buffer, acacetin, with or without CYP isoform-selective inhibitors (10 μM NF for rat CYP1A, 10-μM SPZ for rat CYP2C, 10-μM QND for rat CYP2D, and 10-μM KCZ for rat CYP3A). At 0 and 5 min after initiating the metabolic reaction, a 100-μL aliquot of the incubation mixture was taken, transferred into a clean 1.5 mL microcentrifuge tube containing 100 μL cold acetonitrile to terminate the metabolic reaction, and finally treated in the same manner as described for the tissue S9 fraction samples.

[5] = test system: Caco-2 cell; parameters: method as in PMID 22292790; conditions: cited from earlier work
[6] = Equilibrium solubility in water, pH 7.4 phosphate buffer, SGF and SIF; assay type: physicochemical
Procedure: Simulated gastric fluid (SGF) consisted of 0.2% (w/v) sodium chloride, 0.32% (w/v) pepsin, and 0.7% (v/v) HCl (final pH = 1.2). Simulated intestinal fluid (SIF) was prepared by dissolving 3 mM sodium taurocholate and 0.1% (w/v) pancreatin in phosphate buffer (final pH = 7.0). The solubility of acacetin was measured by adding excessive amounts of acacetin into glass vials containing 1.5 mL of water, pH 7.4 phosphate buffer, SGF, and SIF. The mixtures were allowed to reach equilibrium in a shaking incubator (FINEPCR, Gyeonggi-do, South Korea) at 500 rpm at 37 °C for 48 h. The samples were centrifuged at 16,000× g for 5 min, and the supernatant was passed through a 0.20-μm syringe filter to remove excess acacetin. Further, the concentration of acacetin in the filtrate was determined using the LC-MS/MS method. The distribution coefficients of acacetin in water (log P) and pH 7.4 phosphate buffer (log D7.4) were determined using an octanol–water system at 25 ± 0.5 °C. The two phases were pre-saturated with each other by vigorous vortex-mixing for 15 min and further stabilized overnight for phase separation. A certain amount of acacetin (less than its solubility) was dissolved in the pre-saturated octanol, vortex mixed with the same volume of pre-saturated water for 1 h, shaken for 24 h, and further centrifuged at 16,000× g for 30 min. Finally, the acacetin concentrations in the octanol and water layers were determined using the LC-MS/MS method. The membrane permeability of acacetin and reference compounds (verapamil as a reference for high permeability and ranitidine as a reference for low permeability) was assessed by parallel artificial membrane permeability assay (PAMPA). The PAMPA was conducted using a commercially available PAMPA kit (GIT PAMPA Double Sink; pION Inc., Massachusetts, MA, USA) according to the manufacturer’s protocol. The permeability was calculated using pION PAMPA Explorer ver. 3.8 software (pION Inc., Massachusetts, MA, USA).

[7] = test system: rat CYP2C; experiment: Disappearance in RLM with CYP isoform-selective inhibitor SPZ; assay type: in vitro ADME; conditions: acacetin 20 μM, 10-μM SPZ, NADPH, 5 min
Procedure: as §1

[8] = Unbound fraction by rapid equilibrium dialysis; assay type: in vitro ADME, rat
Procedure: as §2

COc1ccc(-c2cc(=O)c3c(O)cc(O)cc3o2)cc1 [acacetin, Acacetin]
Reduction of relative disappearance rate in presence of KCZ [1]: 43.7% | MAD as portion of the orally administered dose [2]: 0.00361% | blood plasma ratio at 30 min, 1 μM [3]: ~1 | Vmax [4]: 95.0 ± 5.6 nmol/min/mg protein | Km ([4]; 1–200 µM): 187 ± 14 µM | microsomal CLint ([4]; Sprague-Dawley, rat, liver microsomes (RLM)): 508 ± 9 µL/min/mg | Caco-2 cell permeability [5]: 2.81 × 10^–6 cm/s | solubility at 48 h ([6]; aqueous buffer, thermodynamic from solid, pH 7.4 phosphate buffer, 37 °C, 48 h, read-out: Solubility, pH 7.4 phosphate buffer): 0.0121 ± 0.0011 µg/mL (≈ 0.0426 µM) | solubility at 48 h ([6]; fassgf or other biorelevant, thermodynamic from solid, SIF pH 7.0, 37 °C, 48 h, read-out: Solubility, SIF): 0.119 ± 0.008 µg/mL (≈ 0.419 µM) | solubility at 48 h ([6]; pH 7 phosphate buffer, SGF and SIF, pH 7, in abstract, read-out: Solubility in pH 7 phosphate buffer and simulated GI fluids): ≤ 0.119 µg/mL | solubility at 48 h ([6]; simulated gastric fluid, thermodynamic from solid, SGF pH 1.2, 37 °C, 48 h, read-out: Solubility, SGF): 0.0593 ± 0.0071 µg/mL (≈ 0.209 µM) | solubility at 48 h ([6]; thermodynamic from solid, water, 37 °C, 48 h, read-out: Solubility, Water): 0.0401 ± 0.0073 µg/mL (≈ 0.141 µM) | solubility at 48 h ([6]; water, pH 7.4 phosphate buffer, SGF and SIF, pH 7.4, upper bound over all four media, read-out: Solubility in water, pH 7.4 buffer, SGF, and SIF): ≤ 0.119 µg/mL | Reduction of relative disappearance rate in presence of SPZ [7]: 25.8% | fraction unbound at 10 μM ([8]; SGF, 10 μM, read-out: fuSGF (fraction unbound in SGF)): 0.822 ± 0.026 | fraction unbound at 10 μM ([8]; SIF, 10 μM, read-out: fuSIF (fraction unbound in SIF)): 0.714 ± 0.009 | fraction unbound at 10 μM ([8]; Sprague-Dawley, rat, liver microsomes (RLM), RLM, 10 μM, read-out: fuMIC (fraction unbound in microsomes)): 0.302 ± 0.021 | fraction unbound at 10 μM ([8]; Sprague-Dawley, rat, plasma and liver microsomes (RLM), range over plasma and RLM, read-out: Unbound fraction in plasma and RLM): 0.00901 to 0.317 | fraction unbound at 10 μM ([8]; Sprague-Dawley, rat plasma, 10 μM, read-out: fuP (fraction unbound in plasma)): 0.0102 ± 0.0011 | fraction unbound at 10 μM ([8]; range over SGF and SIF, read-out: Unbound fraction in SGF and SIF): 0.707 to 0.849
